Measured values from US6083941A, “Inhibition of NMDA receptor activity by pregnenolone sulfate derivatives” (Trustees of Boston University, priority 1998, dated 2000).
Several values for one entry are separate records, joined by “and”; a condition that tells them apart may be missing. Equal entries are not always repeated. Structures can show the parent of a compound that is named as a salt. Where two headings read alike, the source gives them in different places.

Tests used:
Format in all cases: cell-based
NMDA receptor = test: Whole cell patch clamp, NMDA-induced current in cultured chick spinal cord neurons; settings: for mean NMDA induced current: control cultures 121±16 pA
Experimental: Cultures of dissociated spinal cord neurons were prepared as previously described (Farb, D. H., et al., J. Cell Biol., 80:651-661 (1979)). Briefly, the dissociated cells from 7-day chick embryos were plated on collagen-coated 35-mm tissue culture dishes in Eagle's minimum essential medium supplemented with 2.4 mM glutamine, 10% (v/v) heat-inactivated horse serum, 5% (v/v) chick embryo extract and antibiotics. Cultures were maintained in a humidified atmosphere of 5% CO2, 95% air at 37°. Cytarabine (1 μM) was added to the culture medium after 36 hr. of the initial plating to inhibit the proliferation of non-neuronal cells. One day later, this medium was replaced with a similar medium supplemented with 20.5 mM glucose, 19 mM KCl, and 2.5% chick embryo extract. Fresh medium was added twice weekly. Cultured neurons were used in experiments within 2-4 weeks after plating.
Experiments were carried out in 35-mm tissue culture dishes on the stage of an inverted phase contrast microscope. Whole cell currents were recorded by the whole cell variant of the patch clamp technique (Hamill, O. P., et al., Pfagers Arch. 891:85-100 (1981)). Patch electrodes had tip openings of about […] and resistances of 3-8 M.OMEGA. using an intracellular solution comprised of the following (in mM): 140 CsCl, 11 EGTA, and 10 HEPES (pH adjusted to 7.2 with CsOH). In experiments in which a high concentration of glycine was used, the intracellular solution was replaced with a low chloride (10 mM) pipette solution. This solution contained the following (in mM): 140 potassium gluconate, 10 KCl, 8 sodium gluconate, 11 EGTA, and 10 HEPES (pH adjusted to 7.2 with KOH). To prevent a marked run-down of NMDA-induced current at high NMDA concentrations, 4 mM potassium ATP was included in the intracellular solution. The bath solution contained the following (in mM): 150 NaCl, 4 KCl, 1 CaCl2, and 10 HEPES (pH adjusted to 7.2 with NaOH). No glycine was added to the solutions containing NMDA, because no additional glycine was required to obtain a robust NMDA response, and there was no effect of a maximal concentration (10 μM) of glycine on 5β3αS inhibition of the NMDA response. All experiments were performed at room temperature (23-25° C.).
Recordings were made using an Axopatch 1B patch clamp apparatus (Axon Instruments, Burlingame, Calif.). Cells with series resistances greater than 10 M.OMEGA. were rejected. After partial compensation, series resistances were between 3.5 and 6 M.OMEGA.. The holding potential was maintained at -70 mV unless otherwise noted. Currents were filtered at 1 kHz using an eight-pole Bessel filter (-3 dB) and digitized ([…]) using an on-line data acquisition system (pClamp, Axon Instruments).
Drug solutions were applied to single neurons by pressure ejection (15 psi) from seven-barrel pipettes. Seven-barrel pressure pipettes were positioned approximately […] from the neuronal soma. Under these conditions, the drug solution in the pressure pipette rapidly and effectively replaces the solution surrounding the target neurons with less than 10% dilution (Choi, D. W., et al., Nature (Lond.) 269:342-344 (1977); Chan, C. Y., et al., Life Sci., 83:2061-2069 (1983); Chan, C. Y. and Farb, D. H., J. Neurosci., 5:2365-2373 (1985)). All drugs were obtained from Sigma, with the except of AMPA hydrobromide (Research Biochemicals) and steroids (Steraloids). Stock solutions of steroids were prepared in dimethyl sulfoxide, the final concentration of which was 0.5% (v/v). To obviate the possible effects of dimethyl sulfoxide on the relevant agonist-induced currents, all other drug solutions including NMDA, kainate, AMPA and external buffer (in the pressure pipette) also contained 0.5% dimethyl sulfoxide. […]

[1] = tested on: glutamate receptor-mediated spontaneous EPSCs in rat hippocampal neurons; test: Spontaneous excitatory postsynaptic currents (EPSCs), whole-cell recording in cultured hippocampal neurons
Experimental: Primary cultures of hippocampal neurons were prepared from embryonic day 18 rats. Cultured neurons were used in experiments 2-3 weeks after plating.
Spontaneous excitatory postsynaptic currents were recorded by the whole-cell variant of the patch clamp technique. The pipet solution usually contained (in mM) KCl 10, EGTA 11, sodium gluconate 3, potassium gluconate 140 and HEPES 10, adjusted to pH 7.2 with KOH. The bath solution contained (in mM) NaCl 150, KCl 4, CaCl2 1, and HEPES 10, adjusted to pH 7.2 with NaOH. Because NMDA-induced currents are subject to voltage-dependent block by extracellular Mg^2+, no magnesium salts were added to the bath solution. All records were made with the cell membrane potential clamped at -70 mV, which is very close to the Cl- equilibrium potential. Therefore, IPSCs are not expected to be observed and spontaneous activity should consist of EPSCs. The complete blockage of spontaneous activity by the co-application of the NMDA receptor antagonist APV and the non-NMDA receptor antagonist DNQX argues that the observed spontaneous activity is glutamate receptor-mediated.
Drug solutions were applied to single neurons by pressure ejection (15 psi) from 7-barrel pipets (tip opening ~3-5 μm) positioned ~50 μm from the neuronal soma. In all experiments, neurons received a 40s application of either steroid or steroid plus antagonist(s), followed by 10-20s pulse of external buffer solution.

[2] = tested on: NMDA-induced cell death in primary neuronal cultures of rat hippocampal formation; test: Trypan blue exclusion, NMDA-induced cell death (excitotoxicity) in primary hippocampal cultures; settings: Rattus norvegicus, 200 μM 17β-estradiol hemisuccinate
Description: Trypan blue exclusion was used to evaluate the ability of derivatives of pregnenolone sulfate to inhibit NMDA-induced cell death in primary neuronal cultures of rat hippocampal formation.
Mixed neuronal and glial cultures of hippocampal tissue were derived from fetal rats on day 18 of embryonic development and were maintained in culture for 16 to 24 days (Brewer, G. J., Brain Res., 494: 65-74 (1989)). Care for the animals used in this study was in accordance with institutional guidelines. Hippocampal tissue from Sprague-Dawley rat pups was collected immediately following removal from dams sacrificed with CO2 on embryonic day 18. Cells were dissociated by trituration in Ca^2 +/Mg^2 + free Hank's basic salt solution supplemented with 4.2 mM bicarbonate, 1 mM sodium pyruvate, 20 mM HEPES, 3 mg/ml BSA, and pelleted by centrifugation (900 rpm, 3 min). The resulting pellet was suspended in DMEM supplemented with 2.4 mg/ml BSA, 26.5 mM sodium bicarbonate, 1 mM sodium pyruvate, 20 mM HEPES, 10% FBS, 100 units/ml penicillin, 100 μg/ml streptomycin, and a modification of Brewers B16 defined components (with […] vitamin B12 and without catalase, glutathione, and superoxide dismutase) (Pike, C. J., et al., Neurosci. 13:1676-87 (1993)) and plated onto poly-L-lysine coated 24 well culture dishes (Nunclon) at a density of 15,000 cells/cm^2 and were maintained in a humidified incubator in 5% CO2 /95% air at 37° C. After 5 days in vitro, nonneuronal cell division was inhibited by exposure to 2×10^-6 M cytosine arabinoside for 48 hrs. Cells were subsequently maintained in medium identical to that used for platting without BSA or FBS.
The number of living neurons was determined by assessing the ability of cells to exclude trypan blue 16 hrs. after the addition of drug solutions to the medium of individual culture wells (Dawson, V. L., et al., Proc. Natl. Acad. Sci. USA, 88:6368-6371 (1991)). Drugs were introduced to cultures in 100 μl of conditioned media, collected from experimental cultures just prior to treatment, to a final volume of 0.5 ml. NMDA was dissolved in DMEM at concentrations of 0-5 mM so that addition of 10 μl yielded final concentrations of 0-100 μM. MK-801, a positive control, was dissolved in DMEM at a concentration of 1 mM so that addition of 5 μl yielded a final concentration of 10 μM. Control cultures were exposed only to an equivalent volume of DMEM, and concentration of DMSO (0.5%). The concentrations of the pregnenolone sulfate derivatives were as follows: 10-100 μM 5β3αS, 100 μM 5β3α hemisuccinate and 200 μM 17β-estradiol hemisuccinate.
After exposure to drugs, the medium was replaced by 0.1 M sodium phosphate buffer/0.4% trypan blue. Cell death was assessed by counting the number of trypan blue positive and negative neurons in five high power fields per culture well with an inverted phase contrast microscope using both bright field and phase settings. Cell death is expressed as the ratio of the number of trypan blue positive to total number of cells counted in each well×100 (percent cell death).

[3] = target: T1, recombinant NMDA receptors (NR1100 and NR2A subunits) (Rattus norvegicus, UniProt P35439+Q00959); test: Two electrode voltage-clamp of Xenopus oocytes expressing recombinant NMDA receptors
T1 construct: expressed in transfected cells; host or cells: Xenopus laevis oocytes injected with in vitro transcribed mRNA
T1 sequence (Q00959 23-1464, other chains not shown): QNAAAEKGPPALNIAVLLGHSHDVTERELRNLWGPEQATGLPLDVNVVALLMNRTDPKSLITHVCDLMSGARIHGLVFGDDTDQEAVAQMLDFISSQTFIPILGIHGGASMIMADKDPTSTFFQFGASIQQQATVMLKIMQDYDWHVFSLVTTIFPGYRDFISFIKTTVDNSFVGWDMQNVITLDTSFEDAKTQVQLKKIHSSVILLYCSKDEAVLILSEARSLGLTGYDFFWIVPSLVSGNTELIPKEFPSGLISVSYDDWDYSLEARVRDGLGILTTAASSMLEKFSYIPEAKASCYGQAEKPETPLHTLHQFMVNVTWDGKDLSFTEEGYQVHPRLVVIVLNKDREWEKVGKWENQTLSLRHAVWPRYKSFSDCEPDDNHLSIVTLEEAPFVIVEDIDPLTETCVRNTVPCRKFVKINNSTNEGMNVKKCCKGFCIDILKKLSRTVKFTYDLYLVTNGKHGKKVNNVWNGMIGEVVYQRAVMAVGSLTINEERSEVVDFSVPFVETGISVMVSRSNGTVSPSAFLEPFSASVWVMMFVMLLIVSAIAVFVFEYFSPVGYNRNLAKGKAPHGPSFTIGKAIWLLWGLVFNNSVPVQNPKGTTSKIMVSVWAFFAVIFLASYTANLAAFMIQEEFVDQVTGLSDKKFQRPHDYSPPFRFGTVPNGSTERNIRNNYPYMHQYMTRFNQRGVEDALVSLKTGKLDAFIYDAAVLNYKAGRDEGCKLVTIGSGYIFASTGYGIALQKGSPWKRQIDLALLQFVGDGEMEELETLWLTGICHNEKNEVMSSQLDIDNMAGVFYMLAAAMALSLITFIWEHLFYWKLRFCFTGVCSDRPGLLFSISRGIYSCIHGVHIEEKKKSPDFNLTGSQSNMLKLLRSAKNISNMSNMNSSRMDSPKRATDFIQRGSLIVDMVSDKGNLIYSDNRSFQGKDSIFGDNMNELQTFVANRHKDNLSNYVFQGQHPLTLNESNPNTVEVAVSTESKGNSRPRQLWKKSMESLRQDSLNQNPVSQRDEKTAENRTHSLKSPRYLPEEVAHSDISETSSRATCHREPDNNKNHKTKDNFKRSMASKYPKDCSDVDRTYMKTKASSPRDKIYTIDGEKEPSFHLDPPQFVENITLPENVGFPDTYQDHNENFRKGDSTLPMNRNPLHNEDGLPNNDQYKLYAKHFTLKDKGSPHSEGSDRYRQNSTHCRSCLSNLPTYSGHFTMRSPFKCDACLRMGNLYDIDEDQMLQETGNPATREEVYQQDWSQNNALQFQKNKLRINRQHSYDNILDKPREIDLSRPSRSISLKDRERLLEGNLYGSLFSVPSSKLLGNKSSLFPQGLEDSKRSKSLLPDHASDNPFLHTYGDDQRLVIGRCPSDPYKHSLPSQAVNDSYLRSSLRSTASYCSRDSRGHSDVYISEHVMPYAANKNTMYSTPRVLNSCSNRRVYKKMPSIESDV
Experimental: RNA preparation. mRNA were prepared through in vitro transcription of NR1100 and NR2A cDNAs using the mMessage mMachine kit (Ambion, Tex.). NR1100 and NR2A clones were kindly provided by Dr. Zukin and Dr. Nakanishie.
Xenopus expression system. Female, oocyte positive Xenopus laevis frogs were purchased from Nasco, Inc. (WI). The frogs were kept on a 12/12 light-dark cycle and maintained on a diet of chopped calf liver every 3 days. Prior to surgery, frogs were anesthetized in a 0.15% Tricaine solution (Sigma, Mo.) for 30-45 minutes. Ovarian sections containing the follicular oocytes were removed through a lateral abdominal incision and were immediately placed in calcium-free ND96 solution (in mM):96 NaCl; 1 MgCl2; 2 KCl; 5 Hepes; 2.5 pyruvate (pH adjusted to 7.4 with NaOH). Following a 2 hr. incubation in 0.2% collagenase type II (Sigma, Mo.) at room temperature, individual defolliculated oocytes were transferred into 60×15 mm glass petri dishes containing ND96 solution (in mM): 96 NaCl; 1 MgCl2; 2 KCl; 1.8 CaCl2; 5 Hepes; 2.5 pyruvate (pH adjusted to 7.4 with NaOH). The isolated oocytes were maintained in an incubator at 18° C. On the following date, batches of 20-40 selected oocytes (Dumont stage V and VI) were injected with 50 nl of prepared RNA solution (0.5 ng of NR1 and 12 ng of NR2A mRNAs per oocyte) using an electronic microinjector (Drummond, Pa.). The injected oocytes were used for electrophysiological experiments following 4-10 day incubation at 18° C.
Electrical recording and drug application. The ion current recordings were obtained in two electrodes voltage-clamp mode using an Axoclamp-2A amplifier (Axon Instruments, Inc., CA). The microelectrodes were fabricated with a programmed puller (Sutter Instrument Co., CA) from glass capillaries (Dagan, Minn.) and filled with 3M KCl solution. The resistance of filled microelectrodes was in the range of 2.5-3.5 M.OMEGA.. The oocytes were clamped at a holding potential of -70 mV. The membrane current was filtered at 500 Hz and sampled at 100 Hz frequency. The drugs were applied using a gravity driven external perfusion system. The data acquisition and external perfusion control were done using SuperScopeII software package (GW Instruments, MA). All experiments were performed at room temperature of 22-24° C.
The degree of modulation of the amino acid response by steroids, the percent change, was defined at (I'/I-1)×100%, where I and I' are respectively the agonist-induced currents in the absence and presence of steroid. Throughout, results are expressed as mean±SEM; statistical comparison of groups was carried out using Student's t test.

SMILES: O[C@H](CS)[C@H](O)CS (racemic) [DTT, dithiothreitol, reference compound]
- NMDA current, % of control (NMDA receptor; 4 mM DTT, after 180 seconds of exposure): 273±19%
- mean NMDA induced current (NMDA receptor; after approximately an hour of exposure to 4 mM DTT): 326±82 pA

SMILES: CC(=O)[C@H]1CC[C@H]2[C@@H]3CC[C@H]4C[C@@H](OS(=O)(=O)O)CC[C@]4(C)[C@H]3CC[C@]12C [5α3βS, 5α-pregnan-3β-ol-20-one sulfate, reference compound]
- inhibition of the NMDA-induced current (NMDA receptor; steroid concentration not given): 1±2.6%

SMILES: CC(=O)[C@H]1CC[C@H]2[C@@H]3CC=C4C[C@@H](OS(=O)(=O)O)CC[C@]4(C)[C@H]3C(=O)C[C@]12C [11-keto PS]
- activation at 100 µM ([1]; Rattus norvegicus, Hippocampal neuron, 100 μM steroid, read-out: percentage potentiation of EPSCs): 19 ± 15%
- effect on spontaneous EPSCs ([1]; cultures of rat hippocampal neurons): has no effect on EPSCs

SMILES: C[C@]12CC[C@@H]3c4ccc(OC(=O)CCC(=O)O)cc4CC[C@H]3[C@@H]1CC[C@@H]2O [17β-estradiol hemisuccinate]
- inhibition at 200 µM ([2]; read-out: inhibition of the cell death induced by chronic NMDA): 40%
- inhibition at 200 µM ([2]; read-out: inhibition of the cell death produced by short term exposure to NMDA): 65%

SMILES: C[C@]12CC[C@H](OS(=O)(=O)O)CC1=CC[C@@H]1[C@@H]2CC[C@]2(C)C(=O)CC[C@@H]12 [DHEAS, Dehydroepiandrosterone sulfate, reference compound]
- potentiation of the NMDA response (NMDA receptor; concentration not in the sentence (100 μM in Table 1)): 28.8±8.8% and 28.8%

SMILES: CCN1C(=O)C=CC1=O [NEM, N-ethylmaleimide, reference compound]
- mean NMDA induced current (NMDA receptor; 5 min 4 mM DTT, then 2 min 4 mM DTT plus 300 μM NEM): 367±82 pA

SMILES: CN[C@H](CC(=O)O)C(=O)O [NMDA, N-methyl-D-aspartate]
- EC50 [3]: 62 ± 4 µM
- NMDA nH (NMDA receptor; in the absence of 5β3αS): 1.01
- NMDA Imax (NMDA receptor; in the absence of 5β3αS, normalized to the peak current induced by 100 μM NMDA): 2.56
- EC50 (NMDA receptor; read-out: NMDA EC50, in the absence of 5β3αS): 156 µM

SMILES: CCCCC/C=C\C/C=C\C/C=C\C/C=C\CCCC(=O)O [arachidonic acid, reference compound]
- potentiation of the 30 μM NMDA response (NMDA receptor; 10 μM arachidonic acid alone): 120±35%
- potentiation of the NMDA response (NMDA receptor; 10 μM arachidonic acid in the presence of 100 μM PS): 158±22%

SMILES: NCCCNCCCCNCCCN [spermine, reference compound]
- potentiation of the NMDA induced current (NMDA receptor; 100 μM spermine (maximal)): 136±33%
- potentiation of the NMDA induced current (NMDA receptor; 250 μM spermine): 67±21%
